# Like-named read-outs stand apart in the source and are kept apart here.
# How the values were obtained:
# TM287/288 [1] = biological target: T1, TM287/288 (Thermotoga maritima, UniProt Q9WYC3+Q9WYC4, C28S/C496S/C519S/C558S/C73S); assay: Inhibition of ATPase activity of TM287/288 by vanadate and nucleotides; format: biochemical; details: for IC50: 500 µM ATP; for Ki: calculated from IC50 and Km
# Protocol: Nucleotide binding and hydrolysis follow a complex mechanism in heterodimeric ABC exporters, due to the existence of a degenerate and a consensus site in the NBDs. […] Using the relation IC50=Ki(1+[S]/Km), Ki values for the respective nucleotides were determined (Table 2). […] It is well established that ATPγS is slowly hydrolyzed by ATPases, as for example the F1Fo-ATPase ([Turina and Capaldi, 1994]). […] It is reasonable to assume that TM287/288 is as well capable of slow ATPγS hydrolysis. In addition, we tested whether TM287/288 hydrolyzes AMP-PNP. In contrast to ATPγS, hydrolysis of AMP-PNP releases Pi, which can be detected by the molybdate/malachite green method.
# (§1) in which f corresponds to the ATPase activity at the respective inhibitor concentration divided by the ATPase activity in the absence of inhibitor normalized to 100%, y0 corresponds to the residual activity at infinite inhibitor concentration, a corresponds to the maximal degree of inhibition (a+y0=100%) and x corresponds to the inhibitor concentration.
# (§2) Ki values were calculated according to the formula Ki=IC50/(1+[S]/Km)
# (§3) IC50 and Km values were obtained from data fitting as outlined above.
# (§4) Standard errors for the Ki values were calculated by error propagation: σKi = (Km/Km+[S])^2 σIC502+ ([S]IC50/(Km+[S])^2)^2 σKm2
# (§5) in which the σIC50 and σKm are standard errors obtained from data fitting in SigmaPlot and σKi is the standard error for Ki .
# TM287/288 [2] = assay: DEER two-Gaussian fit of IF/OF populations, wildtype TM287/288; design: species or system Thermotoga maritima; details: estimated errors 10%
# Protocol: All nucleotides and nucleotide analogs used in this study were added at saturating conditions well above their Ki values (Table 2). […] Therefore, the IF/OF fractions detected in the sample reflect the average life time that the nucleotide-bound transporter spends in either conformation. To rank the nucleotides in terms of their ability to support the transition to the OF conformation, we used three representative pairs in the wildtype transporter and the E-to-Q mutant: one in the extracellular region (50^TM287/271^TM287), one in the intracellular region (131^TM288/248^TM288) of the TMDs, and one in the NBDs (460^TM287/363^TM288) for which the distance peaks corresponding to the two states were distinguishable. A two-Gaussian fit of the DEER traces was performed to obtain the area of the corresponding IF and OF distance peaks (Figure 5—source data 1). The rank of nucleotides with respect to increasing fractions of the OF populations (Figure 5A) was: ADP-Mg ≈ AMP-PNP-Mg < ATP-EDTA < ATPγS-Mg < ATP-Mg < ATP-Vi-Mg. The order is similar for the wildtype and E-to-Q mutant transporter. However, the OF state is in general more populated in the E-to-Q mutant, which is best explained by an alteration of the energy profile caused by the mutation. This notion is best appreciated for ATP-EDTA and ATP-Mg, which could trigger an almost complete switch in the molecular ensemble of the E-to-Q mutant (Figure 5B).
# The labeling efficiency of the double cysteine mutants of the transporters solubilized in detergent was measured at 25°C using an X-band Miniscope 400 EPR spectrometer (Magnettech by Freiberg Instrument). Samples were loaded into glass capillaries with the inner diameter of 0.9 mm and spectra were measured with 14 mT field sweep, 0.15 mT modulation amplitude, 2.5 mW microwave power. The calculated spin labeling efficiencies of the twelve mutants ranged between 70–90% (the second integral of the EPR spectra was calculated with the software available at spintoolbox.com). The high degree of labeling is correlated with the 0.3–0.4 modulation depths of all Q-band DEER traces presented. For DEER measurements, 10% v/v D8- glycerol was added prior to snap freezing. The range of final protein concentrations was 12 to 41 µM. 40 µL of sample were loaded in quartz tubes with 3 mm outer diameter. If not stated differently, samples were incubated at 25°C for 10 min (TM287/288 and MsbA) or 15 min (BmrCD) and snap frozen in liquid nitrogen. To study the effect of high physiological temperatures on the frozen dynamics of the transporter, samples were loaded in the quartz tubes, incubated for 3 min at 80°C on a heat block and snap frozen in a mixture of isopentane and liquid nitrogen to minimize the freezing time. […] The nucleotide analogs AMP-PNP-Mg and ATPγS-Mg (2.5 mM) were also prepared in the presence of 2.5 mM MgCl2. In case of ADP-Mg, 2.5 mM ADP and 2.5 mM MgCl2 were added.
# Double electron-electron resonance (DEER) measurements were performed at 50 K on a Bruker ELEXSYS E580Q-AWG (arbitrary wave generator) dedicated pulse Q-band spectrometer equipped with a 150 W TWT amplifier. A 4-pulse DEER sequence with rectangular, non-selective observer and pump pulses of 14 or 16 ns length (depending on the available B1 at the sample) with 100 MHz frequency separation was used ([Polyhach et al., 2012]). Due to the coherent nature of the AWG generated pulses, a four-step phase cycling (0 – π/2 - π – 3/2π) of the pump π pulse was performed to remove unwanted effects of running echoes from the DEER trace. The evaluation of the DEER data was performed using DeerAnalysis2015 ([Jeschke et al., 2006]). The background of the primary DEER traces was corrected using stretched exponential functions with homogeneous dimensions of 1.5 to 3 for different samples. A model-free Tikhonov regularization was used to extract distance distributions from the background corrected form factors. […]
# BmrCD = biological target: T2, BmrCD (Bacillus subtilis, UniProt O07549+O07550, C154A/C256A/C351A); assay: Inhibition of ATPase activity of BmrCD by nucleotide analogs; format: biochemical
# T2 construct: made in house; host or cells: E. coli MC1061
# Protocol: as §1, §2, §3, §4, §5
# ABCB1 = test system: ABCB1; design: method as in Siarheyeva et al., 2010; details: ref Siarheyeva et al., 2010; cited from earlier work
# TM287/288 [3] = biological target: T1, TM287/288; assay: ATPase activity of detergent-purified wildtype TM287/288 (molybdate/malachite green phosphate detection); format: biochemical
# TM287/288 [4] = assay: Hoechst 33342 stimulated ATPase activity of TM287/288 reconstituted into proteoliposomes; format: biochemical, Thermotoga maritima; details: 50, 100 and 150 µM Hoechst 33342, 50°C, wildtype and spin-labeled mutants, maximal at 50 or 100 µM, bell-shaped
# Protocol: To carry out DEER measurements in a lipidic environment (pair 131^TM288/248^TM288) as well as for the investigation of drug-stimulated ATPase activity of all pairs, spin-labeled TM287/288 was reconstituted into proteoliposomes consisting of E. coli polar lipids and egg phosphatidylcholine mixed at a ratio of 3:1 in 50 mM K-HEPES pH 7.0 as described elsewhere ([Hürlimann et al., 2016]; [Geertsma et al., 2008]). […] Reconstituted TM287/288_E517Q^TM288 was used for background subtraction.
# [5] = TM287/288, 50°C, read-out: IC50
# [6] = spin-labeled pair 50^TM287-271^TM287 WT
# [7] = spin-labeled pair 131^TM288-248^TM288 WT
# [8] = spin-labeled pair 460^TM287-363^TM288 WT
# [9] = wildtype TM287/288, ATP-Mg + 2.5 mM EDTA, 50°C, detergent
# [10] = wildtype TM287/288, ATP-Mg + 1 mM vanadate, 50°C, detergent
# T2 sequence (O07550 whole entry): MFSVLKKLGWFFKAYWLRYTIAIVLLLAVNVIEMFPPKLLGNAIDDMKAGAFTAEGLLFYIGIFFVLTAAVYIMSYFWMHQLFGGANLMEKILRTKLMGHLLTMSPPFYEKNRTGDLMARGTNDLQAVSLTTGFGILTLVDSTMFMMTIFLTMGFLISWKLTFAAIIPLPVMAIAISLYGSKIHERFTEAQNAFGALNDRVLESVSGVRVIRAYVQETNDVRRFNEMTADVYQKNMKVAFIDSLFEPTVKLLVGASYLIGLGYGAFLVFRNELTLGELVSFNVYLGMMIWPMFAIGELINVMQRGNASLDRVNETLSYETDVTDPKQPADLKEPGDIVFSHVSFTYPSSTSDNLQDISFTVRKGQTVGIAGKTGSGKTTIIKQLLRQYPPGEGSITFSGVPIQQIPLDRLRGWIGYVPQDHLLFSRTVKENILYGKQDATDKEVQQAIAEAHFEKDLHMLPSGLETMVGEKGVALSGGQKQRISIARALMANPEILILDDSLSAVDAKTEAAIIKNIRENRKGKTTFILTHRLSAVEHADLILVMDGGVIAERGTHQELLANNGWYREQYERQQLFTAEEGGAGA
# T2 sequence (O07549 whole entry C154A/C256A/C351A): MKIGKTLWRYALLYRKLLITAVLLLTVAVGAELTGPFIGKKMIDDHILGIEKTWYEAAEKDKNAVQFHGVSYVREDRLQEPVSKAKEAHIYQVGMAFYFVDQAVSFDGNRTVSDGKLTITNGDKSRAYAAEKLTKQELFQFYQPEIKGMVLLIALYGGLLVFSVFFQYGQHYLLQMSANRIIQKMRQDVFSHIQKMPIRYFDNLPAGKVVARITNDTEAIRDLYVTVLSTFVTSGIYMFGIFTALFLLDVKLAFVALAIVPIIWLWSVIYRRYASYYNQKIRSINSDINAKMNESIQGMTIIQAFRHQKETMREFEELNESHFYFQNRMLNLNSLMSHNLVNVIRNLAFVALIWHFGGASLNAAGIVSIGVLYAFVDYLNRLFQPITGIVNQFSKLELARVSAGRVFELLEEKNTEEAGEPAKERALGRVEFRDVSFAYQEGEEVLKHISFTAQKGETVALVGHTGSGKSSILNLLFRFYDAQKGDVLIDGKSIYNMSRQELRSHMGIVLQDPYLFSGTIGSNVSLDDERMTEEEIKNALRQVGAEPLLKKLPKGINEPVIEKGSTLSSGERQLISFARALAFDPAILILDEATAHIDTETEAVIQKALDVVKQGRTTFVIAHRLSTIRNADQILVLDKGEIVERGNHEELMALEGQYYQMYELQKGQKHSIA
compound,measurement,setting,value
Nc1ncnc2c1ncn2[C@@H]1O[C@H](COP(=O)(O)OP(=O)(O)O)[C@@H](O)[C@H]1O [ADP],IC50,"TM287/288 [1]; TM287/288, 25°C, read-out: IC50",505 ± 21 µM
same,Ki,"TM287/288 [1]; TM287/288, 25°C, read-out: Ki",3.28 ± 0.44 µM
same,IC50,TM287/288 [1]; [5],681 ± 160 µM
same,Ki,"TM287/288 [1]; TM287/288, 50°C, read-out: Ki",10.4 ± 2.9 µM
same,IF frac,TM287/288 [2]; [6],90.1%
same,OF frac,TM287/288 [2]; [6],9.9%
same,IF frac,TM287/288 [2]; [7],100%
same,OF frac,TM287/288 [2]; [7],0%
same,IF frac,TM287/288 [2]; [8],82%
same,OF frac,TM287/288 [2]; [8],18%
Nc1ncnc2c1ncn2[C@@H]1O[C@H](CO[P@](=O)(O)O[P@](=O)(O)O[P@@](=O)(O)S)[C@@H](O)[C@H]1O [ATPγS],IC50,"TM287/288 [1]; IC50, TM287/288, 25°C",31.4 ± 2.8 µM
same,IC50,"TM287/288 [1]; IC50, TM287/288, 50°C",2.86 ± 0.08 µM
same,Ki,"TM287/288 [1]; Ki, TM287/288, 25°C",0.204 ± 0.032 µM
same,Ki,"TM287/288 [1]; Ki, TM287/288, 50°C",0.0439 ± 0.0062 µM
same,IC50,BmrCD,221 ± 24 µM
same,Ki,BmrCD,26.7 ± 3.3 µM
same,IF frac,TM287/288 [2]; [6],45.2%
same,OF frac,TM287/288 [2]; [6],54.8%
same,IF frac,TM287/288 [2]; [7],72.9%
same,OF frac,TM287/288 [2]; [7],27.1%
same,IF frac,TM287/288 [2]; [8],63.7%
same,OF frac,TM287/288 [2]; [8],36.3%
same,rate of hydrolysis of ATPγS relative to that determined for ATP,ABCB1,0.4%
O=C(O)CN(CCN(CC(=O)O)CC(=O)O)CC(=O)O [EDTA],ATPase activity in the presence of EDTA,"TM287/288 [3]; 2.5 mM EDTA added to chelate Mg2+, wildtype TM287/288",did not observe any detectable ATPase activity
same,ATPase activity,TM287/288 [3]; [9],<0.1 nmol Pi/min/mg protein
same,"ATPase activity, % of wildtype",TM287/288 [3]; [9],<0.005%
same,Turnover per transporter,TM287/288 [3]; [9],<0.01 min⁻¹
CCOc1ccc(-c2nc3ccc(-c4nc5ccc(N6CCN(C)CC6)cc5[nH]4)cc3[nH]2)cc1 [Hoechst 33342],stimulation of ATPase activity,TM287/288 [4],robust ATPase stimulation
"[Na+].[Na+].[Na+].[O]=[V]([O-])([O-])[O-] [Vanadate, sodium orthovanadate]",residual ATPase activity,"TM287/288 [1]; 1 mM vanadate, 50°C, TM287/288",8%
same,IC50,TM287/288 [1]; [5],4.9 ± 0.29 µM
same,Ki,"TM287/288 [1]; TM287/288, 50°C, read-out: Ki",0.0751 ± 0.0114 µM
same,ATPase activity,TM287/288 [1]; [10],165 ± 20 nmol Pi/min/mg protein
same,"ATPase activity, % of wildtype",TM287/288 [1]; [10],7.71%
same,Turnover per transporter,TM287/288 [1]; [10],21.9 min⁻¹
same,"turnover rate, ATP hydrolysis inhibited by vanadate","TM287/288 [1]; wildtype TM287/288, vanadate, 50°C",22 ATP min^−1

# Reference: article PMC5216877, “Exploring conformational equilibria of a heterodimeric ABC transporter” (eLife, 2017)
